{"source": "patent US9180155B2", "about": "“Compositions from Nigella sativa” (Bio Nexus, Ltd, priority 2013, dated 2015)", "key": {"C2C12 myocytes": {"tested_on": "C2C12 myocytes", "assay": "Lipolysis (glycerol assay) in C2C12 myocytes", "format": "cell-based, murine", "conditions": "5 or 2.5 μg/mL (FIG. 10)", "experimental": "Culture and treatment of 3T3-L1 adipocytes and C2C12 myocytes was as described in Example 5. Concentrations of the forskolin positive control and test materials are listed in FIG. 9 for adipocytes and FIG. 10 for myocytes. Free fatty acid release from 3T3-L1 adipocytes or C2C12 myocytes was quantified by measuring glycerol secretion into the medium. Glycerol was measured spectrophotometrically using the Free Glycerol Determination Kit ([…], Sigma) and an EL 312e Microplate BIO-KINETICS spectrophotometer (BioTek, Winooski, Vt.). Glycerol release from adipocytes and myocytes was expressed, respectively, as the percent increase in free fatty acid secretion (FIG. 9) and relative glycerol content (glycerol index FIG. 10) ±95% confidence intervals of eight observations for one of three representative experiments."}, "Caco-2 monolayers": {"tested_on": "Caco-2 monolayers", "assay": "LPS/H2O2-mediated loss of TEER in Caco-2 monolayers", "format": "cell-based, human", "conditions": "LPS/H2O2 control = 100, 3 h; μg TQ equivalents/mL: Thymoquinone 5.0, NS8 0.11, NS9 0.99, NS10 0.012, NSSpent#2 0.0005; NSSpent#1 5 μg/mL; listed as TQ", "description": "The protocol for growing and differentiation the human Caco-2 colon andenocarcinoma cells was a modification of Protocol 3 as described by Yamashita et al. [[…]., and Furuyama, Y. 2002) New and better protocols for a short-term Caco-2 cell culture system, J Pharm Sci 91, 669-679]. Caco-2 Human Colon Adenocarcinoma cells were obtained from ATCC (Rockville, Md.; catalog #HTB-37) and maintained in a growth media: DMEM (Dulbecco's Modified Eagles Medium 1×) containing L-glutamine, glucose; Cellgro catalog #35-010CV with the following additions: (1) Penicillin (5,000 IU/mL)/Streptomycin (5,000 μg/mL) Cellgro catalog #30-001C1, (2) 10% FBS-Fetal Bovine Serum, Characterized; Hyclone catalog #SH30071.3, and (3) 1% NEAA-Non Essential Amino Acids; Cellgro catalog #25-025-CI; cells were cultured at 37 C in a humidified air-5% CO2 atmosphere in T175 flasks. BIOCOAT^R HTS Caco-2 Assay System kits (Becton Dickinson, N.J.; catalog #354801) consisting of 24-well fibrillar collagen coated inserts and feeder trays were used in all experiments and plated as follows. Media was removed from the T175 flasks and cells were washed with 10 mLs PBS (phosphate buffered saline 1× without Ca^++, without Mg^++; Cellgro #25-053-CI). […]"}, "[1]": {"tested_on": "IL-6 secretion in 3T3-L1 adipocytes", "assay": "IL-6 secretion in t10-CLA-stimulated 3T3-L1 adipocytes", "format": "cell-based, murine", "conditions": "t10-CLA 50 μM control = 100; μg TQ equivalents/mL: Thymoquinone 5.0, NS8 0.11, NS9 0.99, NS10 0.012, NSSpent#2 0.0005; NSSpent#1 5 μg/mL; listed as TQ", "experimental": "The 3T3-L1 murine fibroblast model as used in Example 4 was used in this experiments. Test materials were added four hours prior to the addition of t10-CLA at a concentration of 50 μM. Following overnight incubation, the supernatant media were sampled for determination of IL-6 and adiponectin. The IL-6 secreted into the medium in response to […] stimulation was quantified using the Quantikine® Mouse IL-6 Immunoassay kit with no modifications (R&D Systems, Minneapolis, Minn.). […] All supernatant media samples were diluted 1:30 for quantification. Test materials and were assayed in duplicate, while solvent controls were replicated eight times. IL-6 and adiponectin secretion were represented relative to the IL-6 and adiponectin secretion of the t10-CLA only controls as the IL-6 and adiponectin index and differences among the means were analyzed by the student's t-test assuming a five percent probability of a type I error (Excel; Microsoft, Redmond, Wash.)."}}}
{"smiles": "CC1=CC(=O)C(C(C)C)=CC1=O", "note": "[Thymoquinone, thymoquinone]", "values": [{"measurement": "free fatty acid release in myocytes", "setting": "C2C12 myocytes", "value": "induced free fatty acid release"}, {"measurement": "Relative Loss of TEER", "setting": "Caco-2 monolayers", "value": "no effect"}, {"measurement": "IL-6 Index", "setting": "[1]", "value": "inhibited IL-6 secretion"}]}
